Where two headings read alike, the source gives them in different places.
How the values were obtained:
[1] = tested on: fixed activated platelets; assay: Platelet Aggregation Assay (fixed-activated platelets, fibrinogen-mediated aggregation); format: cell-based; settings: aggregation initiated by human fibrinogen 250 μg/ml, read-out: Inhibition of Fixed Platelet Aggregation (IC50 μM)
Method: Preparation of Fixed-Activated Platelets
Platelets are isolated from human platelet concentrates using the gel-filtration technique as described by Marguerie, G. A., et al., J. Biol. Chem. 254, 5357-5363 (1979) and Ruggeri, Z. M., et al., J. Clin. Invest. 72, 1-12 (1983). The platelets are suspended at a concentration of 2×10^8 cells/ml in a modified calcium-free Tyrode's buffer containing 127 mM sodium chloride, 2 mM magnesium chloride, 0.42 mM Na2HPO4, 11.9 mM NaHCO3, 2.9 mM KCl, 5.5 mM glucose, 10 mM HEPES, at a pH of 7.35 and 0.35% human serum albumin (HSA). These washed platelets are activated by addition of human a-thrombin at a final concentration of 2 units/ml, followed by thrombin inhibitor I-2581 at a final concentration of 40 μM. To the activated platelets is added paraformaldehyde to a final concentration of 0.50% and this incubated at room temperature for 30 minutes. The fixed activated platelets are then collected by centrifugation at 650×g for 15 minutes. The platelet pellets are washed four times with the above Tyrode's-0.35% HSA buffer and resuspended to 2×10^8 cells/ml in the same buffer.
Platelet Aggregation Assay
The fixed activated platelets are incubated with a selected dose of the compound to be tested for platelet aggregation inhibition for one minute and aggregation initiated by addition of human fibrinogen to a final concentration of 250 μg/ml. A platelet aggregation profiler Model PAP-4 is used to record the platelet aggregation. The extent of inhibition of aggregation is expressed as the percentage of the rate of aggregation observed in the absence of inhibitor.

[2] = tested on: ADP-induced platelet aggregation in canine platelet rich plasma; assay: Inhibition of ADP-Induced ex-vivo Platelet Aggregation after oral administration; format: in vivo, mongrel dogs; settings: Canis lupus familiaris, Platelet, dog
Method: Inhibition of ADP-Induced ex-vivo Platelet Aggregation
Control blood samples are obtained 5-10 minutes prior to administration of the test compound in mongrel dogs weighing from 10 to 20 kg. The compound is administered intragasticly, via aqueous gavage, or orally, via gelatin capsule. Blood samples (5 ml) are then obtained at 30 minute intervals for 3 hours, and at 6, 12, and 24 hours after dosing. Each blood sample is obtained by venipuncture of the cephalic vein and is collected directly into a plastic syringe containing one part 3.8% trisodium citrate to nine parts blood.
Ex vivo Canine Platelet Aggregation
The blood samples are centrifuged at 1000 rpm for 10 minutes to obtain platelet rich plasma (PRP). After removal of the PRP, the sample is centrifuged for an additional 10 minutes at 2000 rpm to obtain platelet poor plasma (PPP). Platelet count in the PRP is determined by using a Coulter Counter (Coulter Electronics, Hialeah, Fla.). If the concentration of platelets in the PRP is greater than 300,000 platelets/μl, then the PRP is diluted with PPP to adjust the platelet count to 300,000 platelets/μl. Aliquots of PRP (250 μl) are then placed in siliconized glass cuvettes (7.25×55 mm, Bio/Data Corp, Horsham, Pa.). Epinephrine (final concentration of 1 μM) is then added to the PRP, which is incubated for one minute at 37° C. A stimulator of platelet aggregation, ADP at a final concentration of 10 μM, is then added to the PRP. Platelet aggregation is monitored spectrophotometrically utilizing a light transmission aggregometer (Bio/Data Platelet Aggregation Profiler, Model PAP-4, Bio/Data Corp, Horsham, Pa.). For compound to be tested, the rate of change (slope) of light transmittance and the maximum light transmittance (maximum aggregation) is recorded in duplicate. Platelet aggregation data are reported as the percent decrease (mean±SEM) in slope or maximum aggregation as compared to data obtained from control PRP, which is prepared from blood samples obtained prior to administration of the test compound.

[3] = 1 h after dosing, read-out: % Inhibition of ex-vivo Platelet Aggregation After Oral Administration, 1 h
[4] = 3 h after dosing, read-out: % Inhibition of ex-vivo Platelet Aggregation After Oral Administration, 3 h
[5] = 6 h after dosing, read-out: % Inhibition of ex-vivo Platelet Aggregation After Oral Administration, 6 h
[6] = 12 h after dosing, read-out: % Inhibition of ex-vivo Platelet Aggregation After Oral Administration, 12 h
[7] = 24 h after dosing, read-out: % Inhibition of ex-vivo Platelet Aggregation After Oral Administration, 24 h

SMILES	IC50 ([1]; fixed activated human platelets)	IC50 ([1]; Homo sapiens, Platelet)	inhibition at 5 mg/kg [2, 3]	inhibition at 5 mg/kg [2, 4]	inhibition at 5 mg/kg [2, 5]	inhibition at 5 mg/kg [2, 6]	inhibition at 5 mg/kg [2, 7]	inhibition at 10 mg/kg [2, 3]	inhibition at 10 mg/kg [2, 4]	inhibition at 10 mg/kg [2, 5]
CCN(CC(=O)NC(CC(=O)O)C(=O)NC(CC1CCCC2CCCCC21)C(=O)O)C(=O)CCCC1CCNCC1 [Example 14, N-[N-[N-(4-(piperidin-4-yl)butanoyl)-N-ethylglycyl]aspartyl]-L-b-decahydronaphth-1-yl alanine]	0.019 µM	–	100%	100%	100%	100%	95%	–	–	–
CCN(CC(=O)NC(CC(=O)O)C(=O)NC(CC1CCCCC1)C(N)=O)C(=O)CCCC1CCNCC1 [Example 12, N-[N-[N-(4-(piperidin-4-yl)butanoyl)-N-ethylglycyl]aspartyl]-L-b-cyclohexyl alanine amide]	–	0.097 µM	100%	100%	100%	98%	50%	–	–	–
CCN(CC(=O)N[C@@H](CC(=O)O)C(=O)NCCC1CCCCC1)C(=O)CCCC1CCNCC1 [Example 15, 2-cyclohexyl-N-[N-[N-(4-(piperidin-4-yl)butanoyl)-N-ethylglycyl]aspartyl]-ethylamine]	–	0.072 µM	35%	18%	–	–	–	–	–	–
CCN(CC(=O)NC(CC(=O)O)C(=O)NC(Cc1ccccc1)C(=O)O)C(=O)CCCC1CCNCC1 (centres unmarked) [Example 3, N-[N-[N-(4-piperidin-4-yl)-N-ethylglycyl]aspartyl]phenylalanine]	–	0.064 µM	–	–	–	–	–	40%	< 20%	–
CCN(CC(=O)NC(CC(=O)O)C(=O)NC(Cc1cccc2ccccc12)C(=O)O)C(=O)CCCC1CCNCC1 [Example 7, N-[N-[N-(4-(piperidin-4-yl)butanoyl)-N-ethylglycyl]aspartyl]-L-b-naphth-1-yl alanine]	–	0.11 µM	30%	< 20%	–	–	–	–	–	–
CCN(CC(=O)NC(CC(=O)O)C(=O)NC(CC1CCCCC1)C(=O)O)C(=O)CCCC1CCNCC1 (centres unmarked) [Example 1, N-[N-[N-(4-(piperidin-4-yl)butanoyl)-N-ethylglycyl]aspartyl]-b-cyclogexylalanine]	–	0.026 µM	100%	100%	100%	88%	42%	–	–	–

The next lines start with results.

IC50 ([1]; fixed activated human platelets)	IC50 ([1]; Homo sapiens, Platelet)	SMILES	inhibition at 5 mg/kg [2, 3]	inhibition at 5 mg/kg [2, 4]	inhibition at 5 mg/kg [2, 5]	inhibition at 5 mg/kg [2, 6]	inhibition at 5 mg/kg [2, 7]	inhibition at 10 mg/kg [2, 3]	inhibition at 10 mg/kg [2, 4]	inhibition at 10 mg/kg [2, 5]
–	0.027 µM	CCN(CC(=O)N[C@@H](CC(=O)O)C(=O)N[C@H](C(=O)O)C(C)C)C(=O)CCCC1CCNCC1 [Example 2, N-[N-[N-(4-(piperidin-4-yl)butanoyl)-N-ethylglycyl]aspartyl]valine]	–	–	–	–	–	90%	60%	< 20%
–	0.13 µM	CCCCC(NC(=O)C(CC(=O)O)NC(=O)CN(CC)C(=O)CCCC1CCNCC1)C(=O)O (centres unmarked) [Example 6]	–	–	–	–	–	80%	20%	–
–	0.082 µM	CCN(CC(=O)NC(CC(=O)O)C(=O)NC(CC(C)(C)C)C(=O)O)C(=O)CCCC1CCNCC1 (centres unmarked) [Example 5]	–	–	–	–	–	100%	90%	35%

— patent US6797700B2, “Antithrombotic azacycloalkylalkanoyl peptides and pseudopeptides” (Aventis Pharmaceuticals, Inc., priority 1993, dated 2004)
